Legend:
[1] = system: Russian thistle (SASKR); test: Greenhouse postemergence trial, weed efficacy; format: in vivo, Salsola iberica; conditions: 20-22 d
Description: (§1) Seeds of the desired test plant species were planted in Sun Gro MetroMix® 306 planting mixture, which typically has a pH of 6.0 to 6.8 and an organic matter content of about 30 percent, in plastic pots with a surface area of 103.2 square centimeters (cm^2). When required to ensure good germination and healthy plants, a fungicide treatment and/or other chemical or physical treatment was applied. The plants were grown for 7-36 days (d) in a greenhouse with an approximate 14-hour (h) photoperiod which was maintained at about 18° C. during the day and 17° C. during the night. Nutrients and water were added on a regular basis and supplemental lighting was provided with overhead metal halide 1000-Watt lamps as necessary. The plants were employed for testing when they reached the second or third true leaf stage.
(§2) Weighed amounts of technical material were dissolved in a volume of 97:3 volume per volume (v/v) acetone/dimethyl sulfoxide (DMSO) to stock solutions. […] Compound requirements are based upon a 12 milliliter (mL) application volume at a rate of 187 liters per hectare (L/ha). Stock solutions of the safeners were prepared following the same procedure. Spray solutions of the safeners and experimental compound mixtures were prepared by adding the stock solutions to the appropriate amount of dilution solution to form a 12 mL spray solution in two-way combinations. Formulated compounds were applied to the plant material with an overhead Mandel track sprayer equipped with 8002E nozzles calibrated to deliver 187 L/ha over an application area of 0.503 square meters (m^2) at a spray height of 18 inches (43 centimeters (cm)) above average plant canopy. Control plants were sprayed in the same manner with the solvent blank.
(§3) The treated plants and control plants were placed in a greenhouse as described above and watered by sub-irrigation to prevent wash-off of the test compounds. After 20-22 d, the condition of the test plants as compared with that of the control plants was determined visually and scored on a scale of 0 to 100 percent where 0 corresponds to no injury and 100 corresponds to complete kill. Colby's equation was used to determine the herbicidal effects expected from the mixtures.

[2] = system: Canada thistle (CIRAR); test: Greenhouse postemergence trial, weed efficacy; format: in vivo, Cirsium arvense; conditions: herbicide 0 g ae/ha, 20-22 d
Description: as §1
as §2, with “Control plants were sprayed in the same manner with the solvent blank.” left out
as §3, with “Colby's equation was used to determine the herbicidal effects expected from the mixtures.” left out

[3] = system: bird's-eye speedwell (VERPE); test: Greenhouse postemergence trial, weed efficacy; format: in vivo, Veronica persica; conditions: 20-22 d
Description: as §1, §2, §3

[4] = system: wild chamomile (MATCH); test: Greenhouse postemergence trial, weed efficacy; format: in vivo, Matricaria chamomilla; conditions: herbicide 0 g ae/ha, 20-22 d
Description: as §1
as §2, with “Control plants were sprayed in the same manner with the solvent blank.” left out
as §3, with “Colby's equation was used to determine the herbicidal effects expected from the mixtures.” left out

[5] = system: kochia (KCHSC); test: Greenhouse postemergence trial, weed efficacy; format: in vivo, Kochia scoparia; conditions: 20-22 d
Description: as §1, §2, §3

[6] = system: shepherd's purse (CAPBP); test: Greenhouse postemergence trial, weed efficacy; format: in vivo, Capsella bura-pastoris; conditions: 20-22 d
Description: as §1, §2, §3

[7] = system: winter wheat (TRZAW); test: Greenhouse postemergence safening trial, crop phytotoxicity; format: in vivo, Triticum aestivum; conditions: 20-22 d
Description: as §1, §2, §3

[8] = system: spring wheat (TRZAS); test: as above; format: in vivo, Triticum aestivum; conditions: 20-22 d
Description: as §1, §2, §3

[9] = system: pigweed (AMARE); test: Greenhouse postemergence trial, weed efficacy; format: in vivo, Amaranthis retroflexus; conditions: herbicide 0 g ae/ha, 20-22 d
Description: as §1
as §2, with “Control plants were sprayed in the same manner with the solvent blank.” left out
as §3, with “Colby's equation was used to determine the herbicidal effects expected from the mixtures.” left out

[10] = system: spring barley (HORVS); test: Greenhouse postemergence safening trial, crop phytotoxicity; format: in vivo, Hordeum vulgare; conditions: 20-22 d
Description: as §1, §2, §3

[11] = system: lambsquarters (CHEAL); test: Greenhouse postemergence trial, weed efficacy; format: in vivo, Chenopodium album; conditions: 20-22 d
Description: as §1, §2, §3

[12] = system: wild pansy (VIOTR); test: Greenhouse postemergence trial, weed efficacy; format: in vivo, Viola tricolor; conditions: 20-22 d
Description: as §1, §2, §3

[13] = system: wild buckwheat (POLCO); test: Greenhouse postemergence trial, weed efficacy; format: in vivo, Polygonum convulvus; conditions: 20-22 d
Description: as §1, §2, §3

[14] = system: wild mustard (SINAR); test: Greenhouse postemergence trial, weed efficacy; format: in vivo, Sinapis arvensis; conditions: 20-22 d
Description: as §1, §2, §3

[15] = system: winter wheat (TRZAW); test: Small plot field trial, crop safety; format: in vivo, Triticum aestivum; conditions: 20 g ae/ha herbicide (triisopropanol amine salt), no safener, post-emergence, mean
Description: (§4) The triisopropanol amine salts of herbicides of formulas I-G-A, I-G-B and I-G-C were tested with and without cloquintocet-mexyl in small plot field trials across various ecozones to evaluate the crop safety of these compounds on […] cereals including winter wheat and durum wheat.
(§5) All herbicide treatments were applied post-emergence in the spring to early summer. Herbicides were applied with bicycle or tractor-mounted sprayers using carbon dioxide (CO2) as a propellant. The sprayers delivered a uniform spray pattern that provided thorough coverage of the foliage using a 150 or 200 L/ha spray volume. At the time of herbicide applications, winter wheat was at the two leaf growth stage and durum wheat was at the 2-3 leaf growth stage.
(§6) Phytotoxicity to cereal crops was visually assessed as percent overall injury, compared to an untreated control plot. The overall injury assessments were based on visual ratings of growth inhibition, chlorosis, and delay in maturity. At late ratings (54-57 days after application), percent visual seed head deformity and reduction in seed formation were also assessed. Trials were designed as randomized complete blocks with four replicates. In general, three to four replicates were assessed for each treatment.

[16] = system: lambsquarters (CHEAL); test: Small plot field trial, weed growth reduction; format: in vivo, Chenopodium album; conditions: 20 g ae/ha herbicide (triisopropanol amine salt), no safener, post-emergence, mean
[17] = system: Canada thistle (CIRAR); test: Small plot field trial, weed growth reduction; format: in vivo, Cirsuim arvensis; conditions: 20 g ae/ha herbicide (triisopropanol amine salt), no safener, post-emergence, mean
[18] = system: durum wheat (TRZDU); test: Small plot field trial, crop safety; format: in vivo, Triticum durum; conditions: 20 g ae/ha herbicide (triisopropanol amine salt), no safener, post-emergence, mean
Description: as §4, §5, §6

[19] = herbicide 0 g ae/ha, cloquintocet-mexyl 4.375 g ai/ha
[20] = herbicide 0 g ae/ha, cloquintocet-mexyl 8.75 g ai/ha
[21] = herbicide 0 g ae/ha, cloquintocet-mexyl 17.5 g ai/ha
[22] = herbicide 0 g ae/ha, cloquintocet-mexyl 35 g ai/ha
[23] = herbicide 0 g ae/ha, cloquintocet-mexyl 70 g ai/ha
[24] = herbicide 0 g ae/ha, cloquintocet-mexyl 20 g ai/ha
[25] = herbicide 0 g ae/ha, cloquintocet-mexyl 40 g ai/ha
[26] = herbicide 0 g ae/ha, cloquintocet-mexyl 80 g ai/ha
[27] = herbicide 4.375 g ae/ha, cloquintocet-mexyl 0 g ai/ha
[28] = herbicide 8.75 g ae/ha, cloquintocet-mexyl 0 g ai/ha
[29] = herbicide 17.5 g ae/ha, cloquintocet-mexyl 0 g ai/ha
[30] = herbicide 35 g ae/ha, cloquintocet-mexyl 0 g ai/ha
[31] = herbicide 70 g ae/ha, cloquintocet-mexyl 0 g ai/ha
[32] = herbicide 20 g ae/ha, cloquintocet-mexyl 0 g ai/ha

CCCCCC(C)OC(=O)COc1ccc(Cl)c2cccnc12 (stereo not drawn) [Cloquintocet-mexyl, cloquintocet-mexyl]
0%: % visual injury SASKR Ob [1, 19] | % visual injury SASKR Ob [1, 20] | % visual injury SASKR Ob [1, 21] | % visual injury SASKR Ob [1, 22] | % visual injury SASKR Ob [1, 23] | % visual injury CIRAR Ob ([2]; cloquintocet-mexyl 20 g ai/ha) | % visual injury CIRAR Ob ([2]; cloquintocet-mexyl 40 g ai/ha) | % visual injury CIRAR Ob ([2]; cloquintocet-mexyl 80 g ai/ha) | % visual injury VERPE Ob [3, 19] | % visual injury VERPE Ob [3, 20] | % visual injury VERPE Ob [3, 21] | % visual injury VERPE Ob [3, 22] | % visual injury VERPE Ob [3, 23] | % visual injury MATCH Ob ([4]; cloquintocet-mexyl 20 g ai/ha) | % visual injury MATCH Ob ([4]; cloquintocet-mexyl 40 g ai/ha) | % visual injury MATCH Ob ([4]; cloquintocet-mexyl 80 g ai/ha) | % visual injury KCHSC Ob [5, 19] | % visual injury KCHSC Ob [5, 20] | % visual injury KCHSC Ob [5, 21] | % visual injury KCHSC Ob [5, 24] | % visual injury KCHSC Ob [5, 22] | % visual injury KCHSC Ob [5, 25] | % visual injury KCHSC Ob [5, 23] | % visual injury KCHSC Ob [5, 26] | % visual injury CAPBP Ob [6, 24] | % visual injury CAPBP Ob [6, 25] | % visual injury CAPBP Ob [6, 26] | % visual injury TRZAW Ob [7, 24] | % visual injury TRZAW Ob [7, 25] | % visual injury TRZAW Ob [7, 26] | % visual injury TRZAS Ob [8, 19] | % visual injury TRZAS Ob [8, 20] | % visual injury TRZAS Ob [8, 21] | % visual injury TRZAS Ob [8, 22] | % visual injury TRZAS Ob [8, 23] | % visual injury AMARE Ob ([9]; cloquintocet-mexyl 20 g ai/ha) | % visual injury AMARE Ob ([9]; cloquintocet-mexyl 40 g ai/ha) | % visual injury AMARE Ob ([9]; cloquintocet-mexyl 80 g ai/ha) | % visual injury HORVS Ob [10, 19] | % visual injury HORVS Ob [10, 20] | % visual injury HORVS Ob [10, 21] | % visual injury HORVS Ob [10, 24] | % visual injury HORVS Ob [10, 22] | % visual injury HORVS Ob [10, 25] | % visual injury HORVS Ob [10, 23] | % visual injury HORVS Ob [10, 26] | % visual injury CHEAL Ob [11, 24] | % visual injury CHEAL Ob [11, 25] | % visual injury CHEAL Ob [11, 26] | % visual injury VIOTR Ob [12, 19] | % visual injury VIOTR Ob [12, 20] | % visual injury VIOTR Ob [12, 21] | % visual injury VIOTR Ob [12, 24] | % visual injury VIOTR Ob [12, 22] | % visual injury VIOTR Ob [12, 25] | % visual injury VIOTR Ob [12, 23] | % visual injury VIOTR Ob [12, 26] | % visual injury POLCO Ob [13, 19] | % visual injury POLCO Ob [13, 20] | % visual injury POLCO Ob [13, 21] | % visual injury POLCO Ob [13, 22] | % visual injury POLCO Ob [13, 23] | % visual injury SINAR Ob [14, 24] | % visual injury SINAR Ob [14, 25] | % visual injury SINAR Ob [14, 26]

CCc1nc(C(=O)O)c(Cl)c(N)c1F [formula I-G-A]
37%: % visual injury HORVS Ob [10, 30] | % visual injury VIOTR Ob [12, 29]
13%: % visual injury KCHSC Ob [5, 27] | % visual injury HORVS Ob [10, 32]
100 % of untreated: Growth reduction of CHEAL, % of untreated [16]
4.3 % of untreated: TRZDU Visual head deformation, % of untreated [18]
95.5 % of untreated: Growth reduction of CIRAR, % of untreated [17]
82%: % visual injury SASKR Ob [1, 30] | % visual injury SASKR Ob [1, 31] | % visual injury VIOTR Ob [12, 31]
23%: % visual injury VERPE Ob [3, 29] | % visual injury KCHSC Ob [5, 28]
67%: % visual injury SASKR Ob [1, 27] | % visual injury KCHSC Ob [5, 30] | % visual injury KCHSC Ob [5, 31]
3%: % visual injury HORVS Ob [10, 28] | % visual injury VIOTR Ob [12, 27]
100%: % visual injury CAPBP Ob [6, 32]
72%: % visual injury SASKR Ob [1, 28]
33%: % visual injury TRZAS Ob [8, 29]
77%: % visual injury VERPE Ob [3, 31]
97%: % visual injury SINAR Ob [14, 32]
25%: % visual injury TRZAW Ob [7, 32]
0%: % visual injury VERPE Ob [3, 27] | % visual injury TRZAS Ob [8, 27] | % visual injury HORVS Ob [10, 27] | % visual injury POLCO Ob [13, 27]
20%: % visual injury VIOTR Ob [12, 28]
47%: % visual injury HORVS Ob [10, 31]
85%: % visual injury CHEAL Ob [11, 32]
60%: % visual injury TRZAS Ob [8, 30]
39.9 % of untreated: Instances of TRZAW grain reduction, % of untreated [15]
75%: % visual injury SASKR Ob [1, 29] | % visual injury POLCO Ob [13, 30]
5.7 % of untreated: TRZDU Visual injury, % of untreated [18]
40%: % visual injury POLCO Ob [13, 29]
10%: % visual injury HORVS Ob [10, 29]
7%: % visual injury VERPE Ob [3, 28] | % visual injury TRZAS Ob [8, 28]
65%: % visual injury VIOTR Ob [12, 30]
27.9 % of untreated: TRZAW grain formation reduction, % of untreated [15]
96%: % visual injury POLCO Ob [13, 31]
32%: % visual injury KCHSC Ob [5, 29]
49%: % visual injury POLCO Ob [13, 28]
50%: % visual injury VERPE Ob [3, 30]
70%: % visual injury TRZAS Ob [8, 31]

Source: patent publication US20170042152A1, “SAFENED HERBICIDAL COMPOSITIONS COMPRISING PYRIDINE CARBOXYLIC ACIDS” (priority 2015, published 2017)
